Patent US7884204B2, “Phenylalanine derivatives” (Ajinomoto Co., Inc., priority 2001, dated 2011)

Columns and labels:
integrin α4β7 = target: T1, integrin α4β7 (Homo sapiens, UniProt P13612+P26010); assay: VCAM antagonistic activity (VCAM-1/α4β7 binding assay), RPMI-8866 cells binding to VCAM-1; format: cell-based; conditions: RPMI-8866 cells binding to recombinant human VCAM-1, binding buffer containing 4 mM MnCl2, 30 minutes at room temperature
T1 construct: lymphoma cell strain RPMI-8866 of human B cells, known to express integrin α4β7; endogenous in cells; host or cells: RPMI-8866, human B-cell lymphoma line
T1 sequence (P13612 34-1032): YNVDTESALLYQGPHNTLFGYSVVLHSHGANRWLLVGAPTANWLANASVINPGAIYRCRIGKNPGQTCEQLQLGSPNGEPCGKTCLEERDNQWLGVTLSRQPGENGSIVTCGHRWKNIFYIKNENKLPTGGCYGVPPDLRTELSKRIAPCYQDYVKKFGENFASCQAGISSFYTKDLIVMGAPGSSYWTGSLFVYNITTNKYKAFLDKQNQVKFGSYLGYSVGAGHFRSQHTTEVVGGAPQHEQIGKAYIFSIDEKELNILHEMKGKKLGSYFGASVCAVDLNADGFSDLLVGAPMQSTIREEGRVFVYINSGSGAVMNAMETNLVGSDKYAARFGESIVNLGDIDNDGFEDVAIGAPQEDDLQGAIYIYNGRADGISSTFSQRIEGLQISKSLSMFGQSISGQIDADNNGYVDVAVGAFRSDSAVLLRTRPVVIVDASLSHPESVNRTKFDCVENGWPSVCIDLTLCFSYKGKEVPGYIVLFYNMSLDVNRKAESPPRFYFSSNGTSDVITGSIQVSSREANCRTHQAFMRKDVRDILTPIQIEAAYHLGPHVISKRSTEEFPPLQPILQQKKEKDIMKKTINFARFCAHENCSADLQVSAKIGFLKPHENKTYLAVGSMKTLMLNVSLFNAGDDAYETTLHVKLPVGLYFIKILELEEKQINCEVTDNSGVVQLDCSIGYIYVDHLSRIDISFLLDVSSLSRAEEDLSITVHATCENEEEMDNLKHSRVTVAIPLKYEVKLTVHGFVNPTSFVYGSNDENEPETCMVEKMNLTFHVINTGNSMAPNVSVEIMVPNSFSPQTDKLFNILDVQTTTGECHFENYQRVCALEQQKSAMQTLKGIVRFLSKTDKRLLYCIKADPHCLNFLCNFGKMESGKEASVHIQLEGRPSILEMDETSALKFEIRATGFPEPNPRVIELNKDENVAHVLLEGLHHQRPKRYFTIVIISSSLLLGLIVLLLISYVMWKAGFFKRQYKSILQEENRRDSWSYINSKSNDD
T1 sequence (P26010 20-798): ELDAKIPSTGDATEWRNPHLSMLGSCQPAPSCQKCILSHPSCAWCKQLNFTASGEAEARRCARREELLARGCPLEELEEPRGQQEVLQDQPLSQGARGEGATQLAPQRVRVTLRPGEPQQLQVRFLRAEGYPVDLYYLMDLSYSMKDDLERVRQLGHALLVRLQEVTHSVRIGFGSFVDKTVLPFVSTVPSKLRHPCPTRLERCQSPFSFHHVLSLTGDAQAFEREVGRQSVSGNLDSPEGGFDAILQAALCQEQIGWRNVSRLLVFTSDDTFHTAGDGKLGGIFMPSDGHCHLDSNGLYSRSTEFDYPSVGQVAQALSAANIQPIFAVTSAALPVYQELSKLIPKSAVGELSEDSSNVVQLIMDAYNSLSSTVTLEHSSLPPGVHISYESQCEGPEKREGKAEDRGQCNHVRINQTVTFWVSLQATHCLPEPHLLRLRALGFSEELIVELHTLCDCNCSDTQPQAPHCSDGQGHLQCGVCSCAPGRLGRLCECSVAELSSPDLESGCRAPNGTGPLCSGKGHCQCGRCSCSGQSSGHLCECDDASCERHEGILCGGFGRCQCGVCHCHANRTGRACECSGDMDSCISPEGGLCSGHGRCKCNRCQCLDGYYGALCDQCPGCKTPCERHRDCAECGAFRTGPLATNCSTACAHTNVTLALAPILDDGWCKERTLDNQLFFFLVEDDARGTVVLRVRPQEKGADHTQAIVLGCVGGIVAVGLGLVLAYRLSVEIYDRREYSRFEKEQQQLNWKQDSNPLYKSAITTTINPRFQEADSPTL
Protocol: VCAM Antagonistic Activity (VCAM-1/α4β7 Binding Assay)
The capacity of a test substance antagonistic to the binding of lymphoma cell strain RPMI-8866 of human B cells, known to express integrin α4β7, to VCAM-1 was determined.
(§1) 100 μl/well of a solution (500 ng/ml) of recombinant human VCAM-1 (R & D systems) solution diluted with buffer A (0.1 M NaHCO3, pH 9.6) was added to a micro titer plate having 96 wells (Nunc Maxisorp). After the incubation at 4° C. overnight, unbound VCAM-1 was removed by washing once with PBS. After completion of the washing, a buffer (buffer B) obtained by diluting Block Ace (Dainippon Pharmaceutical Co., Ltd.) with PBS to ¼ concentration was added in an amount of 150 μl/well. After the incubation at room temperature for 1 hour, buffer B was removed and the plate was washed with PBS once.
RPMI-8866 cells were incubated in Dulbecco modified Eagle medium containing 10 μg/ml of Calcein-AM (Wako Pure Chemical Industries, Ltd.) (SIGMA, hereinafter referred to as “DMEM”) at 37° C. for 30 minutes to label with fluorescence. The cells were again suspended in a binding buffer (20 mM HEPES, DMEM containing 0.1% BSA) containing 4 mM of MnCl2.
(§2) 50 μl of a test substance of various concentrations obtained by the dilution with the binding buffer was added to the plate. Immediately thereafter, 50 μl (final volume: 100 μl/well) of the fluorescent RPMI-8866 cells (4×10^6 cells/ml) were added thereto, and they were incubated at room temperature for 30 minutes. After the shaking on a plate shaker (IKA MTS-4) at 800 rpm for 30 seconds, the solution was immediately removed to remove the unbound cells. The fluorescence quantity of the bound cells remaining in the wells was determined with a fluorescent plate reader (Wallac 1420 ARVO multi-label counter) (filter excitation wave length: 485 nm, emission wave length: 535 nm). The fluorescent strength thus obtained is proportional to the number of RPMI-8866 cells bound to VCAM-1 and remaining on the plate. The binding rate of each test material in various concentrations was determined while the fluorescent strength of the test material-free well was determined to be 100%. The concentration IC50 for the 50% binding inhibition was calculated.

integrin α4β1 = target: T2, integrin α4β1 (Homo sapiens, UniProt P05556+P13612); assay: VCAM antagonist activity (VCAM-1/α4β1 binding assay), Jurkat cells binding to VCAM-1; format: cell-based; conditions: Jurkat cells binding to recombinant human VCAM-1, 30 minutes at room temperature; read-out: VCAM antagonistic activity IC50, α4β1
T2 construct: cell strain Jurkat (ATCC TIB-152) of human T cells, known to express integrin α4β1; endogenous in cells; host or cells: Jurkat (ATCC TIB-152), human T cells
Protocol: VCAM Antagonist Activity (VCAM-1/α4β1 Binding Assay)
The capacity of a test substance antagonistic to the binding of cell strain Jurkat (ATCC TIB-152) of human T cells, known to express integrin α4β1, to VCAM-1 was determined.
as §1
Jurkat cells were washed with Dulbecco modified Eagle medium (SIGMA, hereinafter referred to as “DMEM”) twice and then incubated in DMEM containing 10 μg/ml of Calcein-AM (Wako Pure Chemical Industries, Ltd.) at 37° C. in dark place for 30 minutes to label with fluorescence. The cells were again suspended in a binding buffer (20 mM HEPES, DMEM containing 0.1% BSA).
as §2, with “Jurkat” for “RPMI-8866”

T2 sequence (P05556 21-798, one chain of several): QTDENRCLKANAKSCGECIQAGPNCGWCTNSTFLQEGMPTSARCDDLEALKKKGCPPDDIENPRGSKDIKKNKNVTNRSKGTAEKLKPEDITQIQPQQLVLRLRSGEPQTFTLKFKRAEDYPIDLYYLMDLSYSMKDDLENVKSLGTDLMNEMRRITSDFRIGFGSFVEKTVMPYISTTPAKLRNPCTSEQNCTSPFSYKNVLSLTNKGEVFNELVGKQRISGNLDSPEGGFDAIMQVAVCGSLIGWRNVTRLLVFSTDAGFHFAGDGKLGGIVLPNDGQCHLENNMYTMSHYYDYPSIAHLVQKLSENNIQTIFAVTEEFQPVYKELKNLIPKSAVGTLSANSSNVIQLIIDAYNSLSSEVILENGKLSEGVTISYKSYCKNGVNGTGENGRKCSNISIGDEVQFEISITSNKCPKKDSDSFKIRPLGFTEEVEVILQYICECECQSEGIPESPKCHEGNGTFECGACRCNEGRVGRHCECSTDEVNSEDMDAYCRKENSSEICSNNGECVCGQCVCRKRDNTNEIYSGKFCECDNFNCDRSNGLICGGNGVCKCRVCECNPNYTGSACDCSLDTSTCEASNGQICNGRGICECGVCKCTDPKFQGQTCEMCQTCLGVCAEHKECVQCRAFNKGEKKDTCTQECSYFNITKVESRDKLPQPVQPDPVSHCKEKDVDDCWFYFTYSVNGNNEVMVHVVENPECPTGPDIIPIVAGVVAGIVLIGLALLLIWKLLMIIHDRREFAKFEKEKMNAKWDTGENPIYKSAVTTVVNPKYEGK

Row | SMILES | IC50 (integrin α4β7) [nM] | IC50 (integrin α4β1) [nM]
1 | Cn1c(=O)c(-c2ccc(C[C@H](NC(=O)c3c(Cl)cccc3Cl)C(=O)O)cc2)cc2ccccc21 [Example 1, (2S)-2-[(2,6-dichlorobenzoyl)amino]-3-[4-(1-methyl-2-oxo-1,2-dihydro-3-quinolinyl)phenyl]propionic acid] | 90 | 620
2 | CCC(CC)(C(=O)N[C@@H](Cc1ccc(-c2cc3ccccc3n(C)c2=O)cc1)C(=O)O)C(=O)N1CCCC1 [Example 8, (2S)-2-[[2-ethyl-2-(1-pyrrolidinecarbonyl)butanoyl]amino]-3-[4-(1-methyl-2-oxo-1,2-dihydro-3-quinolinyl)phenyl]propionic acid] | 18 | 320
3 | Cn1c(=O)c(-c2ccc(C[C@H](NC(=O)c3c(Cl)ccnc3Cl)C(=O)O)cc2)cc2ccccc21 [Example 19] | 11 | 290
4 | O=C(N[C@@H](Cc1ccc(N2C(=O)c3cccc(=O)n3C2=O)cc1)C(=O)O)c1c(Cl)cccc1Cl [Example 22] | 150 | 
5 | Cc1cn(-c2ccc(C[C@H](NC(=O)c3c(Cl)cccc3Cl)C(=O)O)cc2)c(=O)c2ccccc12 [Example 23] | 35 | 
6 | CCC(CC)(C(=O)N[C@@H](Cc1ccc(N2C(=O)c3cccc(C)c3C2=O)cc1)C(=O)O)C(=O)N1CCCC1 [Example 26] | 44 | 
7 | Cn1c(=O)c(-c2ccc(C[C@H](NC(=O)c3c(Cl)cccc3Cl)C(=O)O)cc2)cc2cc(O)ccc21 [Example 33] | 21 | 255
8 | CCn1c(=O)c(-c2ccc(C[C@H](NC(=O)c3c(Cl)cccc3Cl)C(=O)O)cc2)c(C)c2ccccc21 [Example 43] | 10 | 178
9 | COc1c(-c2ccc(C[C@H](NC(=O)c3c(Cl)cccc3Cl)C(=O)O)cc2)c(=O)n(C)c2ccc(Cl)cc12 [Example 44] | 11 | 168
10 | CCCc1c(-c2ccc(C[C@H](NC(=O)c3c(Cl)cccc3Cl)C(=O)O)cc2)c(=O)n(C)c2ccccc12 [Example 45] | 7.3 | 37
11 | CC1CN(c2ccc(C[C@H](NC(=O)c3c(Cl)cccc3Cl)C(=O)O)cc2)C(=O)c2ccccc21 (some centres unmarked) [Example 46] | 67 | 
12 | O=C(N[C@@H](Cc1ccc(N2Cc3ccccc3CC2=O)cc1)C(=O)O)c1c(Cl)cccc1Cl [Example 47] | 97 | 

Now those with a lower IC50 (integrin α4β7), led by results:

Row | IC50 (integrin α4β7) [nM] | IC50 (integrin α4β1) [nM] | SMILES
13 | 3.5 | 44 | COc1c(-c2ccc(C[C@H](NC(=O)c3c(Cl)cccc3Cl)C(=O)O)cc2)c(=O)n(C)c2ccccc12 [Example 6, (2S)-2-[(2,6-dichlorobenzoyl)amino]-3-[4-(4-methoxy-1-methyl-2-oxo-1,2-dihydro-3-quinolinyl)phenyl]propionic acid]
14 | 3.3 | 150 | Cn1c(=O)c(-c2ccc(C[C@H](NC(=O)c3c(Cl)cccc3Cl)C(=O)O)cc2)cc2cc([N+](C)(C)C)ccc21 [Example 14]
15 | 2.4 | 190 | O=C(N[C@@H](Cc1ccc(-n2ncc3ccccc3c2=O)cc1)C(=O)O)c1c(Cl)cccc1Cl [Example 21]
16 | 3.9 | 64 | Cn1c(=O)c(-c2ccc(C[C@H](NC(=O)c3c(Cl)cccc3Cl)C(=O)O)cc2)cc2cc(S(C)(=O)=O)ccc21 [Example 30]
17 | 3 | 47 | Cn1c(=O)c(-c2ccc(C[C@H](NC(=O)c3c(Cl)cc(NS(C)(=O)=O)cc3Cl)C(=O)O)cc2)cc2ccccc21 [Example 31]
18 | 6.5 | 115 | CCCOc1c(-c2ccc(C[C@H](NC(=O)c3c(Cl)cccc3Cl)C(=O)O)cc2)c(=O)n(C)c2ccccc12 [Example 40]
19 | 4.5 | 74 | CCOc1c(-c2ccc(C[C@H](NC(=O)c3c(Cl)cccc3Cl)C(=O)O)cc2)c(=O)n(C)c2ccccc12 [Example 41]
20 | 4.1 | 52 | Cc1c(-c2ccc(C[C@H](NC(=O)c3c(Cl)cccc3Cl)C(=O)O)cc2)c(=O)n(C)c2ccccc12 [Example 42]
